In data set [1] the target is T1, wild-type human androgen receptor (Homo sapiens, UniProt P10275).
T1 construct: expressed in transfected cells
T1 sequence (P10275 1-920): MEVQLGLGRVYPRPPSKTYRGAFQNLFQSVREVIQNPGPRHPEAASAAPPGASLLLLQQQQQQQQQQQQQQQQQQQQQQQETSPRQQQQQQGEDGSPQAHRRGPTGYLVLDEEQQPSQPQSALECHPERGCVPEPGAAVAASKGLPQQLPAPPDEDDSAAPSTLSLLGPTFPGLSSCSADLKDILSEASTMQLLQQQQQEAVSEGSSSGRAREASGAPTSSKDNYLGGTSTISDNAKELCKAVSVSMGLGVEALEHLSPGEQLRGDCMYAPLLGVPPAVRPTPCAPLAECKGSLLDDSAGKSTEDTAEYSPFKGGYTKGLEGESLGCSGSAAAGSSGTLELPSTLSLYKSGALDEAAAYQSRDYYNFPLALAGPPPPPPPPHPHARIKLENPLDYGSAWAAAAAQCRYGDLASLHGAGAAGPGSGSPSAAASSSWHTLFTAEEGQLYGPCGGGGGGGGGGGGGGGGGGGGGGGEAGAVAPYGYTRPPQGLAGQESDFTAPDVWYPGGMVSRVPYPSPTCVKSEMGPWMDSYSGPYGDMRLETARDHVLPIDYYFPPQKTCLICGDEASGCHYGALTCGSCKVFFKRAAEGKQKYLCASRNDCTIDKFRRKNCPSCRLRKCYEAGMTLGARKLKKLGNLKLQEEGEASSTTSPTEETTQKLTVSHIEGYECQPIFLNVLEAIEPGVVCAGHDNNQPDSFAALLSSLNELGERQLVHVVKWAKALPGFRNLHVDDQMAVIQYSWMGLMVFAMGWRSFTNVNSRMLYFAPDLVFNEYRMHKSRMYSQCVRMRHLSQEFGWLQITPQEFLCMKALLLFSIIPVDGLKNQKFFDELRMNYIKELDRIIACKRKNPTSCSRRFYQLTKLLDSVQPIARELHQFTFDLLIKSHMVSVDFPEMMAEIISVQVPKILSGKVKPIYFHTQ
In words: Cell-based transactivation assay for wild-type human androgen receptor (PC-3 cells, MMTV-luciferase reporter).

Data set [2] concerns the target T2, human androgen receptor W741L mutant (Homo sapiens, UniProt P10275, W742L).
T2 construct: expressed in transfected cells; host or cells: PC-3 cells, transient transfection with a pSG5-derived plasmid
T2 sequence (P10275 1-920 W742L): T1 sequence (P10275 1-920) with W742L
Description: Cell-based transactivation assay for human androgen receptor mutant W741L.
Description: Cell-Based Transactivation Assay for Human Androgen Receptor Mutant W741L or W741C
PC-3 cells (Kaighn et al., Invest. Urol. 17:16-23, 1979) were grown in 5% charcoal-stripped medium and seeded at a concentration of 10000 cells per well in a 96-well plate. They were transiently transfected with a pSG5-derived plasmid (#216201 from Stratagene, La Jolla, Calif., USA) coding for the human androgen receptor W741L or W741C mutant Mara et al., Cancer Research, 63: 149-153, 2003) and an MMTV-Luciferase reporter plasmid based on pGL4.14 14 (#E6691, Promega Corporation, Madison, Wis., USA). The compound to be tested was added at a concentration range varying from 1×10^−9 to 1×10 M together with 1×10^−10 R1881. After 24 h incubation at 37° C. in a 5% CO2 atmosphere, 100 μl of Steady Glo Lysis and Detection reagent (Steady Glo Luciferase assay system E2550 from Promega Corporation. Madison, Wis., USA) were added. Antagonistic activity was determined by measuring Luciferase activity in a Victor 3 Luminometer (PerkinElmer, Waltham, Mass., USA) using the Steady Glo Luciferase Assay (E2550, Promega). IC50 values were calculated for anti-androgenic activity.

The next data set deals with LNCaP cells. Description: Proliferation assay with LNCaP cells. It counts as cell-based. The settings on record: Homo sapiens, 168 h, R1881 (1×10^−10) stimulated growth, day 7, read-out: inhibition IC50 (LNCaP). Here is the method:
Proliferation Assay with LNCaP Cells
LNCaP cells (Horoszewicz et al., in “Models for Prostate Cancer” (ed. G. P. Murphy), Alan R. Liss, New York 1981, p. 115-132; Horoszewicz et al., Cancer Res. 43:1809-1818, 1983) were seeded at 2000 cells/well in 96-well plates in RPMI (F1235, Biochrom AG, Berlin, Germany) without phenol red supplemented with 5% charcoal-stripped serum. After 3 days, the cells were treated with R1881) (1×10^−10) and compound (day 0). Cell number was determined by Alamar Blue (DAL1100, Invitrogen, Life Technologies, Lohne, Germany) staining (2.5 h) at day 0 and day 7. Fluorescence was determined in Victor3 (Excitation 530 nm; emission 590 nm). Stimulated growth was defined as the signal measured at day 7 for cells treated only with R1881. Basal level was defined as the signal measured at day 7 for cells grown without R1881.

Data set [3] can be described thus: Determination of metabolic stability in vitro (calculation of hepatic in vivo blood clearance). Type of data set: in vitro ADME. The note with it: pH 7.4, human liver microsomes, calculated from half-life, read-out: calculated hepatic in vivo blood clearance (CL) (converted). Here is the method:
Determination of Metabolic Stability In Vitro (Including Calculation of Hepatic In Vivo Blood Clearance (CL) and of Maximal Oral Bioavailability (Fmax))
The metabolic stability of test compounds in vitro was determined by incubating them at 1 μM with a suspension of human liver microsomes in 100 mM phosphate buffer, pH7.4 (NaH2PO4×H2O+Na2HPO4×2H2O) at a protein concentration of 0.5 mg/ml and at 37° C. The reaction was activated by adding a co-factor mix containing 1.2 mg NADP, 3 IU glucose-6-phosphate dehydrogenase, 14.6 mg glucose-6-phosphate and 4.9 mg MgCl2 in phosphate buffer, pH 7.4. Organic solvent in the incubations was limited to <0.2% dimethylsulfoxide (DMSO) and <1% methanol. During incubation, the microsomal suspensions were continuously shaken and aliquots were taken at 2, 8, 16, 30, 45 and 60 min, to which equal volumes of cold methanol were immediately added. Samples were freezed at −20° C. over night, subsequently centrifuged for 15 minutes at 3000 rpm and the supernatant was analyzed with an Agilent 1200 HPLC-system with LCMS/MS detection.
The half-life of a test compound was determined from the concentration-time plot. From the half-life the intrinsic clearances were calculated. Together with the additional parameters liver blood flow, specific liver weight and microsomal protein content the hepatic in vivo blood clearance (CL) and the maximal oral bioavailability (Fmax) were calculated for the different species. The following parameter values were used: Liver blood flow—1.3 l/h/kg human; specific liver weight—21 g/kg human; microsomal protein content—40 mg/g.
With the described assay only phase-I metabolism of microsomes is reflected, e.g. typically oxidoreductive reactions by cytochrome P450 enzymes and flavin mono-oxygenases (FMO) and hydrolytic reactions by esterases (esters and amides).

Where a chain is given by its changes, count along the chain named. pEC50, pIC50: −log10 of the molar value.

By pEC50 is commonly meant −log10 of the EC50, conventionally taken in molar units. Low values mean a high EC50, high ones a low EC50. As usually defined, the pIC50 is −log10 of the IC50, conventionally taken in molar units. On to `Cn1cc(-c2ccc(CN3C(=S)N(c4ccc(C#N)c(C(F)(F)F)c4)C(=O)C3(C)C)cn2)cn1` [Example 18, 4-(4,4-Dimethyl-3-{[6-(1-methyl-1H-pyrazol-4-yl)pyridin-3-yl]methyl}-5-oxo-2-thioxoimidazolidin-1-yl)-2-(trifluoromethyl)benzonitrile], for which the pEC50 in data set [1] is 5.02. Further, the pIC50 in data set [2] is 7.02; in the data set on LNCaP cells it was 6.93. The CLhep predicted at 1 µM in data set [3] was 1.83 mL/min/kg.

The values above are taken from US20120251551A1, “Substituted (Heteroarylmethyl)thiohydantoins” (BAYER PHARMA AKTIENGESELLSCHAFT, priority 2009, published 2012).
